From patent US20230141718A1, “METHODS OF TREATING GLIOBLASTOMA” (CELGENE QUANTICEL RESEARCH, INC., priority 2021, published 2023)
Entries after “also recorded” stand apart in the source; their conditions may differ.

Legend:
Type in all cases: in vivo, human
[1] = Brain tumor tissue, plasma and CSF concentration at resection, CC-90010-GBM-001
Experimental: (§1) The primary objectives of the study in this example were determination of tumor tissue concentration and plasma pharmacokinetics (PK) of Compound A. The secondary and exploratory objectives included safety, antitumor activity, cerebrospinal fluid concentration, and pharmacodynamics (PD).
(§2) Patients were treated with Compound A at 30 mg daily on Day 1 to Day 4 prior to undergoing indicated tumor resection and to maintain platelet count above the minimum of […] recommended for surgery (Part A, preoperative treatment). Following recovery from surgery and a minimum of 4 weeks from the first dose of Compound A, subjects who were fit to continue were treated with Compound A at 45 mg on a 4 days on/24 days off schedule (180 mg per 28-day cycle). Maintenance treatment continued until disease progression, unacceptable toxicity, or withdrawal of consent.
The geometric mean peak of Compound A plasma concentration on Day 4 was 1.90 μM, and the median time to peak concentration was 1.75 hours. The median time from the day 4 dose of Compound A to resection was 23 hours (range, 4.6-31.3). […] At the time of resection, the geometric mean concentrations of Compound A in plasma and brain tumor tissue were 1.02 and 0.74 μM, respectively. Geometric mean free Compound A concentration in brain tissue was calculated to be 0.028 μM. Geometric mean Compound A concentration in CSF (cerebrospinal fluid) was 0.14 μM, and the mean CSF:plasma ratio was 0.17. None of the brain tumor tissue samples for PK analyses was confirmed to comprise homogeneous contrast-enhancing or non-enhancing tumor tissue, precluding measurement in these subgroups.
At Cycle 1 Day 4, the concentration of Compound A was measured in resected brain tumor from 20 subjects at 6 to 24-hour post dose. At the time of resection (N=19), the mean (f SDev) concentration of Compound A in plasma was 397 f 77.78 ng/mL (geometric mean: 389.23 ng/mL; coefficient of variation: 20.1%). The mean ratio of compound concentration in the resected brain tissue to compound concentration in plasma is 0.84 f 0.25 for 19 of the 20 subjects.

[2] = tested on: progressive or recurrent astrocytoma or recurrent glioblastoma; test: Antitumor response per RANO and PFS, CC-90010-GBM-001
Source text: The Response Assessment in Neuro-Oncology criteria (RANO) is used to assess response to first-line treatment of glioblastoma. See, Leao, D. J. et al., American Journal of Neuroradiology 2019, 1-11. The RANO criteria divides response into four types of response based on imaging (MRI) and clinical features: (1) complete response (CR); (2) partial response (PR); (3) stable disease (SD); and (4) progression. For this assessment, a measurable disease is defined as bidimensional contrast-enhancing lesions with clearly defined margins, with 2 perpendicular diameters of at least 10 mm, visible on ≥2 axial slices. The nonmeasurable disease is defined as either unidimensional measurable lesions, masses with margins not clearly defined as frequently noted in the surgical margins, or lesions with maximal perpendicular diameters of <10 mm.
(§3) The study described in this example (CC-90010-GBM-001 study/NCT04047303) enrolled patients with progressive or recurrent astrocytoma or recurrent glioblastoma who have failed radiation and chemotherapy, and who are candidates for surgical tumor resection as part of their salvage regimen.
as §2

[3] = tested on: HEXIM1 (hexamethylene bis-acetamide-inducible protein 1) mRNA; test: Blood and tumor HEXIM1 mRNA pharmacodynamics, CC-90010-GBM-001
Experimental: as §1, §2
(§4) Blood HEXIM1 (hexamethylene bis-acetamide-inducible protein 1) mRNA was increased at 72-96 hours following first dose, and the percentage increase correlated with plasma concentration of Compound A at surgery. Tumor HEXIM1 RNA increased in 10 of 11 patients. Additionally, blood HEXIM1 mRNA expression was increased in all subjects at 72-96 hours following the first dose. Percentage HEXIM1 increase was related to plasma Compound A concentration at biopsy.

[4] = tested on: CCR1 (C-C chemokine receptor type 1) mRNA; test: Blood CCR1 mRNA pharmacodynamics, CC-90010-GBM-001
Experimental: as §1, §2, §4

[5] = Plasma pharmacokinetics of Compound A, CC-90010-GBM-001 study
Source text: as §1, §3, §2
The blood PK, blood PD, tumor PK and tumor PD data were available for 20, 12, 20, and 11 patients, respectively.

Cn1cc(-c2cc(S(C)(=O)=O)ccc2OCC2CC2)c2ccccc2c1=O [Compound A, 4-[2-(cyclopropylmethoxy)-5-methylsulfonylphenyl]-2-methylisoquinolin-1-one]
geometric mean concentration in brain tumor tissue ([1]; at the time of resection): 0.74 µM | geometric mean concentration in plasma ([1]; at the time of resection): 1.02 µM | geometric mean concentration in plasma ([1]; at the time of resection (N=19)): 389.23 ng/mL | Geometric mean free concentration in brain tissue ([1]; calculated): 0.028 µM | Kp ([1]; human, brain tumor tissue, 30 mg, as stated in the comparison with other agents, read-out: brain tumor tissue:plasma ratio): 0.14 | Geometric mean concentration in CSF (cerebrospinal fluid) ([1]; in vivo): 0.14 µM | mean CSF:plasma ratio ([1]; in vivo): 0.17 | BBB / brain tumor tissue penetration ([1]; patients with recurrent high-grade glioma): found to penetrate the BBB and was detected in brain tumor tissue; also recorded: good tumor tissue penetration; also recorded: high brain penetrance | PD per RANO criteria ([2]; 17 evaluable patients): 59% | stable disease per RANO criteria ([2]; 17 evaluable patients): 41% | median PFS ([2]; IDH wild-type disease, 95% CI 1.4-3.6): 3.0 months | 6-month PFS rate ([2]; IDH wild-type disease, 95% CI 2.7-40.4): 16.3% | 6-month PFS rate ([2]; IDH-mutant disease): 0% | median PFS ([2]; IDH-mutant disease, 95% CI 0.4-1.9): 1.2 months | Six month progression-free survival ([2]; all evaluable): 12% | Median progression-free survival (PFS) ([2]; all evaluable, 95% CI 1.4-3.3): 1.9 months | Blood HEXIM1 mRNA change ([3]; 72-96 hours following first dose): increased | HEXIM1 mRNA increased in resected brain tumor tissue versus archival tissue, patients ([3]; group P=0.00093): 15 of 18 | Tumor HEXIM1 RNA increased, patients ([3]; tumor): 10 of 11 | Blood CCR1 mRNA reduction ([4]; after Dose 4): ≥ 50% | Blood CCR1 mRNA, % of baseline ([4]; after Dose 4, standard deviation 28.5): 45.8% | CCR1 downregulation ([4]; following first and last dose of ≥30 mg, cycle 1, CC-90010-GBM-001 (FIG. 5)): ≥ 50% | GM AUC from 0 to 24 hours (AUC0-24) ([5]; C1D1, 30 mg daily): 5083 ng·h/mL | Median tmax ([5]; C1D4): 1.9 h | mean t1/2 ([5]; C1D4): 46 h | GM AUC0-24 ([5]; C1D4, 30 mg daily): 11,250 ng h/mL | geometric mean peak plasma concentration ([5]; Day 4): 1.90 µM | median time to peak concentration ([5]; Day 4): 1.75 h | geometric mean (GM) Cmax ([5]; cycle 1, day 1 (C1D1), 30 mg daily): 392 ng/mL | GM Cmax ([5]; cycle 1, day 4 (C1D4), 30 mg daily): 720 ng/mL
